Laboratory results taken from patent US20220026439A1, “PARTICLE BASED SMALL MOLECULE-PROTEIN COMPLEX TRAP” (priority 2018, published 2022).
Like-named read-outs stand apart in the source and are kept apart here. Values belong to the compound of their own block, whether it stands above or below them.

Tests used:
[1] = target: T1, CRBN / ASS1 (Homo sapiens, UniProt Q96SW2); test: ViroTrap (gag-CRBN bait) with LC-MS/MS: molecular glue-induced recruitment of endogenous ASS1 to CRBN in virus-like particles; format: cell-based
T1 construct: expressed in transfected cells; host or cells: HEK293T
Excerpt: In this study we evaluated the use of ViroTrap to identify molecular glue-induced endogenous (neo)substrates of CRBN in HEK293T cells. For this purpose, we used a previously described method known as ViroTrap (Eyckerman, et al. “Trapping mammalian protein complexes in viral particles,” Nature Communications 7: 11416 (2016); Titeca, et al. “Analyzing trapped protein complexes by Virotrap and SFINX.” Nature Protocols 12.5 (2017): 881). With this method, CRBN is expressed as a fusion protein with the viral protein HIV-GAG. HIV-GAG, when expressed in cells, such as HEK293T, is capable of triggering the formation of virus-like particles that bud off the cells. In the particle, the HIV-GAG protein is oriented towards the center of the particle. […] In the event the GAG-CRBN fusion interacts with proteins inside the cells, such proteins are dragged/trapped along with GAG-CRBN into the virus-like particles. In this manner, endogenous proteins that interact with CRBN, in presence or absence of a CRBN-ligand, can be identified. This is achieved by lysis of the particle and a standard mass-spectrometry analysis of tryptic digest of the sample. Subtractive analysis will then identify proteins that are specifically associated with the particle in response to a CRBN-ligand such as a molecular glue. […] Twenty-four hours after compound addition, virus-like particles (VLPs) were isolated from the cell supernatant using anti-Flag coated magnetobeads. After elution from the beads using Flag peptide, purified VLPs were lysed, and the protein content was digested overnight with trypsin. The peptide samples were analyzed through LC-MS/MS and label-free quantification data (LFQ intensities) from triplicate samples was processed using the MaxQuant software package and a volcano plot showing p-value (resulting from a two-sided t-test corrected for multiple testing; FDR 0.05%) versus LFQ intensity fold change (FIG. 1A-C) was generated with the Perseus tool.

[2] = target: FKBP12 / PPP3CA (Homo sapiens, UniProt P62942); test: ViroTrap (gag-FKBP12 bait) with LC-MS/MS: FK506-induced binding of PPP3CA (calcineurin catalytic subunit) to FKBP12; format: cell-based; conditions: HEK293T cells
[3] = target: PPP3CA, a calcineurin catalytic subunit, endogenous (UniProt Q08209); test: ViroTrap: gag-FKBP12 VLPs from HEK293T cells, LC-MS/MS label-free quantification; FK506 1 µM versus DMSO control

T1 sequence (Q96SW2 whole entry, species assumed): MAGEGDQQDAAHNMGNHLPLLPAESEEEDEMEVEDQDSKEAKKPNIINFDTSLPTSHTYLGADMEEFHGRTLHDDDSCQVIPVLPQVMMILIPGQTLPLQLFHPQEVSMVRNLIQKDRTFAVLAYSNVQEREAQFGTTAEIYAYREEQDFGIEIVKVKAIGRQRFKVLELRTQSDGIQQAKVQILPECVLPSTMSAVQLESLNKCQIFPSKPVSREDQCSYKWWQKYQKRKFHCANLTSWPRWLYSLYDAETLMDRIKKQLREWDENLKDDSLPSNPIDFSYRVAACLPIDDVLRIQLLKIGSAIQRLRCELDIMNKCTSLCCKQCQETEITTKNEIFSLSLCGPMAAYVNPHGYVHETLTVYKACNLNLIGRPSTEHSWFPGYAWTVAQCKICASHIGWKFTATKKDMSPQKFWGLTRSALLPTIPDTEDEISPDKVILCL
T1 sequence (P00966 whole entry partner, species assumed): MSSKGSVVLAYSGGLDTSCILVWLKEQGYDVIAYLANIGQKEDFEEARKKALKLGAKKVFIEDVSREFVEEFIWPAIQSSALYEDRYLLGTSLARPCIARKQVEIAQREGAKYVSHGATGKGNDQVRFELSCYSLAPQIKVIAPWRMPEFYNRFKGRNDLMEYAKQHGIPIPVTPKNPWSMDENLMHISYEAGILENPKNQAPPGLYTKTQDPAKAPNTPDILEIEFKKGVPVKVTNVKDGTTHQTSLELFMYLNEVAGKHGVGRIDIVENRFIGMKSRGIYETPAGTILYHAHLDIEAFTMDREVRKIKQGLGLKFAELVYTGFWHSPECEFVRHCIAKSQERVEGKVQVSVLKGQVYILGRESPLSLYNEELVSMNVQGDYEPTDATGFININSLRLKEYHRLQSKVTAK
T1 sequence (Q16531 2-1140 partner limits assumed, species assumed): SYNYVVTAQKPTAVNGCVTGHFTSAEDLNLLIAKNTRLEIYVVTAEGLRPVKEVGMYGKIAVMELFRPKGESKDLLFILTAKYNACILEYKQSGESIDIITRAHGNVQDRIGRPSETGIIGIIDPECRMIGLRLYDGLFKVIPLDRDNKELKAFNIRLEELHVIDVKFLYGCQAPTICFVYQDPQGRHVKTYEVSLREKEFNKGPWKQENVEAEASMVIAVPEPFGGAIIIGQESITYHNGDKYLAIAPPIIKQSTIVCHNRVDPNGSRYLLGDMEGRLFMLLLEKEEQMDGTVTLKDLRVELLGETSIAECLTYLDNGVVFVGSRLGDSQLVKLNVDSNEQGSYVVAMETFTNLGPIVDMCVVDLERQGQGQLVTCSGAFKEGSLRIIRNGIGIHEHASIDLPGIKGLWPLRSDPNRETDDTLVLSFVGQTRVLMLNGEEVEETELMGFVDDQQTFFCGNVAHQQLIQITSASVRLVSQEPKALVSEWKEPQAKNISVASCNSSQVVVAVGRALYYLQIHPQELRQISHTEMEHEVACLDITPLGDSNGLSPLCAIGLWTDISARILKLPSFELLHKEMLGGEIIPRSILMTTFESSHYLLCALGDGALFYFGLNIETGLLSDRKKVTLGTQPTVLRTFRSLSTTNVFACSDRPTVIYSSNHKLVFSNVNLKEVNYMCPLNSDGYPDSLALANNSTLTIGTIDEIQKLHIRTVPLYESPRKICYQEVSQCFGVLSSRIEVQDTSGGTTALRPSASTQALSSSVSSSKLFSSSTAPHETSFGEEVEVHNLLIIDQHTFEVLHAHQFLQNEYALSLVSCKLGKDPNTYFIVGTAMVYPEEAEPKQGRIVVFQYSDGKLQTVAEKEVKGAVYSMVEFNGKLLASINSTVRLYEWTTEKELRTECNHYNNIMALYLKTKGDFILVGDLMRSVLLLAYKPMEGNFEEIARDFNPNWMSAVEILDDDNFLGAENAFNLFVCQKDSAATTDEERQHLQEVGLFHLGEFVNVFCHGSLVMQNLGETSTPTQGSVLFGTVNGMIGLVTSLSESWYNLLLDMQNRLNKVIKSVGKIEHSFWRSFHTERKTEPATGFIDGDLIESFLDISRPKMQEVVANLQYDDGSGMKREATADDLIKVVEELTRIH
FKBP12 / PPP3CA, sequence (P62942 whole entry, species assumed, other chains not shown): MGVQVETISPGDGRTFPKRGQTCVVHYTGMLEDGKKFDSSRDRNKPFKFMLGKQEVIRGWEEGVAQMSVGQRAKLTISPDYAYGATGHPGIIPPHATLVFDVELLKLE
FKBP12 / PPP3CA, sequence (P63098 2-170 partner limits assumed, species assumed, other chains not shown): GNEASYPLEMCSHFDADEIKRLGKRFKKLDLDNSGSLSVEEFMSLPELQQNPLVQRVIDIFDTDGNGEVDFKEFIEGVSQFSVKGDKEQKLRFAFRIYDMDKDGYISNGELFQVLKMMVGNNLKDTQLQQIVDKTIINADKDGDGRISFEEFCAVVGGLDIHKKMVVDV
gag-FKBP12 fusion protein, sequence (P62942 whole entry, the tested form may be a part): as the sequence (P62942 whole entry, species assumed, other chains not shown) above

Compound: O=C1CC[C@H](N2Cc3c(OCc4ccc(CN5CCOCC5)cc4)cccc3C2=O)C(=O)N1 [CC-220]
- Compound-induced association of endogenous ASS1 with CRBN (result in words) ([1]; HEK293T cells, 10 μM lenalidomide, 10 μM pomalidomide, 1 μM CC-220, versus DMSO): induced the association of endogenous ASS1 with CRBN
- Fold change (LFQ intensity, compound versus DMSO) of target protein ASS1 ([1]; bait CRBN, 1 μM compound, HEK293T cells, VLPs isolated 24 h after compound addition, triplicate samples): 3.31

- Fold change (LFQ intensity, compound versus DMSO) of target protein ASS1 [1]: 2.01
Compound: Nc1cccc2c1C(=O)N(C1CCC(=O)NC1=O)C2=O (stereo not shown) [Pomalidomide, pomalidomide]
- Compound-induced association of endogenous ASS1 with CRBN (result in words) [1]: induced the association of endogenous ASS1 with CRBN

- FK506-induced enrichment of PPP3CA in gag-FKBP12 virus-like particles (result in words) ([2]; FK506 versus DMSO): enriched for the presence of PPP3CA
- Fold change (LFQ intensity, compound versus DMSO) of target protein PPP3CA ([2]; bait FKBP12, 1 μM compound): 9.71
Compound: C=CC[C@@H]1/C=C(\C)C[C@H](C)C[C@H](OC)[C@H]2O[C@@](O)(C(=O)C(=O)N3CCCC[C@H]3C(=O)O[C@H](/C(C)=C/[C@@H]3CC[C@@H](O)[C@H](OC)C3)[C@H](C)[C@@H](O)CC1=O)[C@H](C)C[C@@H]2OC [FK506, tacrolimus]

Compound: gag-FKBP12 fusion protein (from UniProt P62942 1-108)
- Fold change (LFQ intensity, compound versus DMSO) [3]: 9.71 fold
